From publication PMC6104039 (Nature Communications, 2018) come the findings set out here.

Entries after “also recorded” stand apart in the source; their conditions may differ.

Data set [1] relates to SkM. As to the kind of experiment: Western blotting of SkM (respiratory complex subunits, PGC-1α, AMPK, ACC). The class given is in vivo, mice. The procedure: Tissues were homogenized in RIPA buffer (100 mM NaCl, 10 mM Tris, pH 7.4, 1% Triton X-100, 0.5% sodium deoxycholate, 0.1% SDS, 1 mM EDTA, 10% Glycerol) containing complete protease inhibitor cocktail (Roche) and phosphatase inhibitors (3 mM β-glycerophosphate, 1 mM sodium orthovanadate, 5 mM sodium fluoride) by bead-beating in a Precellys 24 at 4 °C. Extracts were centrifuged at 6500 rpm for 10 min at 4 °C. Supernatant was collected and protein concentrations determined with the Bicinchoninic acid (BCA) assay (Thermo Scientific). Protein lysates (15 μg) were resolved on SDS-PAGE, transferred to polyvinylidene difluoride (PVDF) membrane, and immunoblotted with antibodies against Complex I subunit NADH dehydrogenase (#ab110242, Abcam), Complex II succinate dehydrogenase subunit B (#ab14714, Abcam), Complex III subunit Core 2 Ubiquinol-cytochrome c reductase (#ab14745, Abcam), Complex IV Cytochrome c oxidase (#11967S, Cell Signaling Technology), Complex V ATP synthase α subunit (#ab14748, Abcam), PGC1α (#AB3242, Merck Millipore), AMPKα (#2532S, Cell Signaling Technology), phospho- AMPKα (Thr172) (#2535S, Cell Signaling Technology), ACC (#3662S, Cell Signaling Technology), phospho-ACC (Ser 79, which also detects Ser 212 in ACC2, the predominant ACC isoform in SkM) (#3661S, Cell Signaling Technology) and pan 14-3-3 (#sc-629, Santa Cruz Biotechnology). All antibodies were used at a dilution of 1:1000. A common loading control was included on every gel to account for variation in relative band intensities between different blots. Antibody-antigen binding was detected using ECL Reagent (GE Healthcare) and imaged on a Fujifilm Las-4000 CCD camera. Bands were quantified by densitometry with Fuji ImageQuantTL software. Full images of blots in Fig. 6 are shown in Supplementary Figure 12.
Western blots for phospho-AMPK (Thr172), total AMPK, phospho-ACC (Ser79), and total
ACC in vehicle- or P053-treated mice on a chow or HFD. Denistometry for phospho-
AMPK/total AMPK and phospho-ACC/total ACC is shown (n = 10 mice per group).
(1 picture or pasted object on this page, not shown here)

Data set [2] concerns liver. As to the kind of experiment: Mitochondrial markers in liver (Western blots, citrate synthase, βHAD). Further details: species or system mice. The note with it: mouse, in vivo.
Procedure: Tissues were homogenized in RIPA buffer (100 mM NaCl, 10 mM Tris, pH 7.4, 1% Triton X-100, 0.5% sodium deoxycholate, 0.1% SDS, 1 mM EDTA, 10% Glycerol) containing complete protease inhibitor cocktail (Roche) and phosphatase inhibitors (3 mM β-glycerophosphate, 1 mM sodium orthovanadate, 5 mM sodium fluoride) by bead-beating in a Precellys 24 at 4 °C. Extracts were centrifuged at 6500 rpm for 10 min at 4 °C. Supernatant was collected and protein concentrations determined with the Bicinchoninic acid (BCA) assay (Thermo Scientific). […] All antibodies were used at a dilution of 1:1000. A common loading control was included on every gel to account for variation in relative band intensities between different blots. Antibody-antigen binding was detected using ECL Reagent (GE Healthcare) and imaged on a Fujifilm Las-4000 CCD camera. Bands were quantified by densitometry with Fuji ImageQuantTL software.
Liver and tibialis muscle were homogenized 1:19 (w/v) in 50 mM Tris-HCl, 1 mM EDTA, 0.1% Triton X-100, pH 7.4. The homogenates were subjected to three freeze-thaw cycles and centrifuged for 10 min at 7000 × g at 4 °C. Supernatants were used to determine the activity of CS and βHAD[66].
In data set [3] the target is T1, CerS1 (Homo sapiens, UniProt P27544).
T1 sequence (P27544 1-350): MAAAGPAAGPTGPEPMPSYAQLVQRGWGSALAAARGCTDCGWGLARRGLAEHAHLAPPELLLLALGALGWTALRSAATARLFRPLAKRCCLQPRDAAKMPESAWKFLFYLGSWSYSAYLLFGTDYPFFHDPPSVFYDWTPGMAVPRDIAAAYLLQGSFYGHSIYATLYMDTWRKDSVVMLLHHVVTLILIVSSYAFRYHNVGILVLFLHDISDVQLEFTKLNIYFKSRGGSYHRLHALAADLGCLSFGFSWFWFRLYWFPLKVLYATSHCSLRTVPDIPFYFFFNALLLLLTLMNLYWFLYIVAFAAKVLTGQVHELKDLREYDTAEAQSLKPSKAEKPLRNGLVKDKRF
The experiment in a line: CerS1 activity as a function of substrate concentration (Vmax, Khalf, mode of inhibition). The following applies: dihydrosphingosine and C18:0-CoA substrates. Also noted: expressed in transfected cells. It counts as biochemical.

Data set [4] deals with SkM. The experiment in a line: Targeted quantification of sphingosine and dihydrosphingosine in SkM. It counts as in vivo, mice. The following applies: 5 mg/kg daily. The text has this: (§1) Male C57BL6/J mice were obtained from the Animal Resources Centre in Perth (WA, Australia). […] Treatment was commenced at the same time as mice were randomised to dietary groups. The experiments were approved by the UNSW animal care and ethics committee (ACEC 15/48B), and followed guidelines issued by the National Health and Medical Research Council of Australia.

Data set [5] addresses recombinant human sphingosine kinase 1 (Homo sapiens, UniProt Q9NYA1). The note with it: 10 μM. The procedure:
(§2) Sphingosine kinase assays were performed using fluorescent NBD-dihydrosphingosine[63],[64]. […] Reactions were stopped with 100 μL methanol, and 5 μL amounts were resolved on Silica Gel 60 thin layer chromatography (TLC) plates using butanol:acetic acid:water (3:1:1). The fluorescent NBD-dihydrosphingosine 1-phosphate band was quantified using a BioRad ChemiDoc imaging system with excitation by UV light.
(§3) Supplementary Figure 2. […] Activity of recombinant
(§4) human sphingosine kinases 1 and 2 (SphK1 and 2) was assessed in the presence of 10 µM
(§5) Activity is expressed as a percentage of the vehicle control.

For data set [6], the system named is SkM. The experiment in a line: Mitochondrial DNA content of SkM by quantitative PCR. The class given is in vivo, mice. The procedure:
Total DNA was isolated using standard phenol:chloroform extraction, followed by RNase H (NEB) treatment. Relative levels of nuclear and mitochondrial DNA were determined by quantitative PCR on a LightCycler 480 (Roche) using SensiFAST SYBR mastermix (Bioline). Primers for quantification of genomic DNA were: 5′- […]-3′, and 5′- […]-3′; and mitochondrial DNA: 5′- […]-3′, and 5′- […]-3′[73]. Calibration curves of Ct against input DNA were prepared from a pooled sample of mouse SkM DNA, and used to calculate the relative abundance of mitochondrial to nuclear DNA in each sample.

Data set [7] concerns the target T2, recombinant human sphingosine kinase 2 (Homo sapiens, UniProt Q9NRA0).
T2 construct: purchased R&D Systems
As to the kind of experiment: Sphingosine kinase assay with NBD-dihydrosphingosine, TLC. It counts as biochemical. The following applies: 10 μM. The procedure:
as §2, §3, §4, §5

Data set [8] relates to C57BL6/J mice. As to the kind of experiment: Food intake. The note with it: mouse, in vivo.
Data set [9] relates to C57BL6/J mice. As to the kind of experiment: Body composition (EchoMRI) and fat pad weights in mice on chow or HFD. It counts as in vivo. The method, then:
as §1
Body composition (lean mass and fat mass) was determined by EchoMRI-900 Body Composition Analyser (EchoMRI Corporation Pte Ltd, Singapore) in accordance with the manufacturer’s instructions.

A short description of data set [10]: P053 accumulation in tissues, LC-MS/MS. The note with it: 5 mg/kg daily for 2 weeks. The class given is in vivo, mice.

recombinant human sphingosine kinase 1, sequence (Q9NYA1 whole entry): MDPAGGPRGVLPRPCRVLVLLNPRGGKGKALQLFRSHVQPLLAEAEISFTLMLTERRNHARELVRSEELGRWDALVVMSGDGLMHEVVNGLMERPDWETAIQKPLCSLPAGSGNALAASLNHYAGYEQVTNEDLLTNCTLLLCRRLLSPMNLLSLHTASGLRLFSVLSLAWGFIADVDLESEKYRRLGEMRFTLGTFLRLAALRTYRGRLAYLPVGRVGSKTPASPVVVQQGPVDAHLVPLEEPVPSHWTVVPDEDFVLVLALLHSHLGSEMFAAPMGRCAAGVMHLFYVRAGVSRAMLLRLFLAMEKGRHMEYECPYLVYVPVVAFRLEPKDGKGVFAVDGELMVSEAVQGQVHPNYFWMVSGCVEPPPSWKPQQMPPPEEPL
T2 sequence (Q9NRA0 whole entry): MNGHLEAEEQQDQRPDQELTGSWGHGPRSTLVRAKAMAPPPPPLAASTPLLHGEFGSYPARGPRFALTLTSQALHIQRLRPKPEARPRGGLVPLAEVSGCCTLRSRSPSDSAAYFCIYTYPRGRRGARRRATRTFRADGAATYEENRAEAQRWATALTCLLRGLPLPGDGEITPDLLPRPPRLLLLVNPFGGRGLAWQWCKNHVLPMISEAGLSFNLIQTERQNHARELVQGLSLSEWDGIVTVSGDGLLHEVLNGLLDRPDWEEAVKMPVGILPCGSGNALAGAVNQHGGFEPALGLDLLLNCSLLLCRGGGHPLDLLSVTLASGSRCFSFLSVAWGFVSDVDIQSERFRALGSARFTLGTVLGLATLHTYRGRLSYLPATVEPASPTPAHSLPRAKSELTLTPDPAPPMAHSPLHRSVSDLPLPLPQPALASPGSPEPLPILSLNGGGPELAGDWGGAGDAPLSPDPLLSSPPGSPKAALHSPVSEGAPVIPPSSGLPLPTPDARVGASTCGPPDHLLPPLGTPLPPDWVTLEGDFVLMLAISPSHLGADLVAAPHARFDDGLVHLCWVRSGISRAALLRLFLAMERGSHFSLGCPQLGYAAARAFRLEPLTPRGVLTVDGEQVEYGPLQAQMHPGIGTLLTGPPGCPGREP

`C[C@@](N)(CO)CCc1ccc(OCc2ccccc2)cc1` [G024, (2S)-2-amino-4-(4′-benzyloxyphenyl)-2-methyl-1-butanol] yielded a melting point of 196.7 to 197.6 °C.
On to `C[C@@](N)(CO)CCc1ccc(OCc2ccc(Cl)c(Cl)c2)cc1` [P053, (S)-2-amino-4-(4-(3,4-dichlorobenzyloxy)phenyl)-2-methylbutan-1-ol], for which, in data set [1], the “phosphorylation of AMPK or acetyl-CoA carboxylase (ACC)” value is “no effect”, the “protein expression of Pgc-1α” value is “significantly increased” and the “respiratory complexes at the protein level” value is on record as “up-regulated”. Besides, the “mitochondrial markers in liver” value in data set [2] was “no increase”. Also, the mode of inhibition entry in [3] is given as “non-competitive inhibitor”. Moreover, the “dihydrosphingosine levels in SkM” value in [4] is given as “not notably affected”. For the same compound, the “increase of sphingosine levels in SkM” value in data set [4] (HFD) is 22%. Moreover, in [4] (chow diet, not significant), the “increase of sphingosine levels in SkM” value is on record as 11%. For the same compound, the “reduction in sphingosine kinase 1 activity” value in data set [5] is on record as “did not inhibit; also recorded: does not inhibit; also recorded: no inhibitory activity”. Besides, in data set [6], the “mitochondrial DNA content” value is given as “elevated”. Besides, the “inhibition of sphingosine kinase 2” value in data set [7] is recorded as “did not inhibit; also recorded: does not inhibit; also recorded: no inhibitory activity”. Besides, in data set [8], the food intake entry is “not due to any effect of P053 on food intake”. Further, the “whole-body fat mass and weight of individual white adipose depots” value in data set [9] (HFD, 5 mg/kg, 4–6 weeks) is listed as “significantly reduced”. Also, the “reduction of the gain in fat pad mass on a HFD” value in data set [9] (both fat pads (inguinal and epididymal)) is on record as 44%. Also, in data set [9] (with P053 treatment), the “gain in epididymal fat pad weight, HFD compared to chow” value worked out at 0.29 g and the “gain in inguinal fat pad weight, HFD compared to chow” value is 0.15 g. Further, in data set [10], the “compound distribution in tissues” value is “higher in liver and kidney than in muscle and adipose tissue”; the “levels of the compound in brain tissue compared to SkM” value is given as “three-fold lower”; the “uptake in the liver” value was “substantial uptake”.
